Data as given in patent publication US20230085307A1, “PYRIDAZINONE COMPOUND AND HERBICIDE” (NISSAN CHEMICAL CORPORATION, priority 2019, published 2023).

Experiments:
[1] = test system: late watergrass; test: Test Example 2: herbicidal activity, application during weed generation under submerged conditions (Table 17, symbol A); type: in vivo, late watergrass (Echinochloa oryzicola); conditions: AAH 320 g/ha; application during weed generation, submerged conditions
How it was run: (§1)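 3-wk visual-criteria score after one water-surface dose. Emulsion formulation, water-diluted to set rate; applied at 1–2 leaf stage; alluvial soil, 4 cm standing water; seeds co-sown; greenhouse 25–30° C.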

[2] = test system: Japanese bulrush; test: Test Example 2: herbicidal activity, application during weed generation under submerged conditions (Table 17, symbol B); type: in vivo, Japanese bulrush (Schoenoplectus juncoides); conditions: AAH 320 g/ha; application during weed generation, submerged conditions
How it was run: as §1

[3] = test system: barnyard grass; test: Test Example 3: herbicidal effect by foliage application, Wagner pot (Table 18, symbol H); type: in vivo, barnyard grass (Echinochloa crus-galli); conditions: 320 g/ha
How it was run: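 Plants were sown in alluvial soil held under 0.1–0.5 cm standing water and grown 14 days in a greenhouse at 25–30 °C. An emulsifiable formulation, water-diluted to the set dose, was then sprayed onto the foliage, and effects were scored three weeks later using previously defined criteria.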

[4] = test system: green foxtail; test: Test Example 4: herbicidal effect by soil treatment (Table 19, symbol G); type: in vivo, green foxtail (Setaria viridis); conditions: amount of applied herbicide 320 g/ha
How it was run: (§2)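 Soil-surface application: an emulsion agent diluted with water to the predetermined dose is sprayed uniformly over seeds lying under roughly 1.5 cm of sterilized diluvial soil. Boxes stay in a greenhouse at 25° C. to 30° C. Three weeks later, each species is graded on previously defined criteria.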

[5] = test system: barnyard grass; test: Test Example 4: herbicidal effect by soil treatment (Table 19, symbol H); type: in vivo, barnyard grass (Echinochloa crus-galli); conditions: amount of applied herbicide 320 g/ha
How it was run: as §2

[6] = test system: wild oat; test: Test Example 4: herbicidal effect by soil treatment (Table 19, symbol I); type: in vivo, wild oat (Avena fatua); conditions: amount of applied herbicide 320 g/ha
How it was run: as §2

[7] = test system: blackgrass; test: Test Example 4: herbicidal effect by soil treatment (Table 19, symbol J); type: in vivo, blackgrass (Alopecurus myosuroides); conditions: amount of applied herbicide 320 g/ha
How it was run: as §2

[8] = test system: Italian ryegrass; test: Test Example 4: herbicidal effect by soil treatment (Table 19, symbol K); type: in vivo, Italian ryegrass (Lolium multiflorum); conditions: amount of applied herbicide 320 g/ha
How it was run: as §2

[9] = test system: velvetleaf; test: Test Example 4: herbicidal effect by soil treatment (Table 19, symbol M); type: in vivo, velvetleaf (Abutilon theophrasti); conditions: amount of applied herbicide 320 g/ha
How it was run: as §2

[10] = test system: lambsquarters; test: Test Example 4: herbicidal effect by soil treatment (Table 19, symbol O); type: in vivo, lambsquarters (Chenopodium album); conditions: amount of applied herbicide 320 g/ha
How it was run: as §2

[11] = test system: chickweed; test: Test Example 4: herbicidal effect by soil treatment (Table 19, symbol P); type: in vivo, common chickweed (Stellaria media); conditions: amount of applied herbicide 320 g/ha
How it was run: as §2

[12] = test system: blackgrass; test: Test Example 5: herbicidal effect by foliage application, plastic box (Table 20, symbol J); type: in vivo, blackgrass (Alopecurus myosuroides); conditions: foliage application, 320 g/ha, three weeks after application
How it was run: (§3)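 Sow seeds spot-wise in sterilized diluvial soil; cover with ~1.5 cm soil. Grow 14 days in greenhouse, 25° C. to 30° C. Spray foliage with emulsion diluted to predetermined amount. Rate effect after 3 weeks.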

[13] = test system: Italian ryegrass; test: Test Example 5: herbicidal effect by foliage application, plastic box (Table 20, symbol K); type: in vivo, Italian ryegrass (Lolium multiflorum); conditions: foliage application, 320 g/ha, three weeks after application
How it was run: as §3

[14] = test system: velvetleaf; test: Test Example 5: herbicidal effect by foliage application, plastic box (Table 20, symbol M); type: in vivo, velvetleaf (Abutilon theophrasti); conditions: foliage application, 320 g/ha, three weeks after application
How it was run: as §3

[15] = test system: redroot pigweed; test: Test Example 5: herbicidal effect by foliage application, plastic box (Table 20, symbol N); type: in vivo, redroot pigweed (Amaranthus retroflexus); conditions: foliage application, 320 g/ha, three weeks after application
How it was run: as §3

[16] = test system: chickweed; test: Test Example 5: herbicidal effect by foliage application, plastic box (Table 20, symbol P); type: in vivo, common chickweed (Stellaria media); conditions: foliage application, 320 g/ha, three weeks after application
How it was run: as §3

[17] = test system: persian speedwell; test: Test Example 5: herbicidal effect by foliage application, plastic box (Table 20, symbol R); type: in vivo, Persian speedwell (Veronica persica); conditions: foliage application, 320 g/ha, three weeks after application
How it was run: as §3

SMILES	herbicidal effect rating, A: late watergrass [1]	herbicidal effect rating, B: Japanese bulrush [2]	herbicidal effect on barnyard grass (H) [3]	G: green foxtail, herbicidal effect grade [4]	H: barnyard grass, herbicidal effect grade [5]	I: wild oat, herbicidal effect grade [6]	J: blackgrass, herbicidal effect grade [7]	K: Italian ryegrass, herbicidal effect grade [8]	M: velvetleaf, herbicidal effect grade [9]	O: lambsquarters, herbicidal effect grade [10]	P: chickweed, herbicidal effect grade [11]	J: blackgrass, herbicidal effect grade [12]	K: Italian ryegrass, herbicidal effect grade [13]	M: velvetleaf, herbicidal effect grade [14]	N: redroot pigweed, herbicidal effect grade [15]	P: chickweed, herbicidal effect grade [16]	R: persian speedwell, herbicidal effect grade [17]	other results
CCCOc1ccc2c(-c3c(O)c(C)nn(C)c3=O)c(-c3ccccc3OCC)sc2c1 [3-103]	2 (Herbicidal rate of 20% or more and less than 40%)	3 (Herbicidal rate of 40% or more and less than 70%)	4 (Herbicidal rate of 70% or more and less than 90%)	4 (Herbicidal rate of 70% or more and less than 90%)	4 (Herbicidal rate of 70% or more and less than 90%)	0 (Herbicidal rate of 5% or less (almost no effect))	3 (Herbicidal rate of 40% or more and less than 70%)	5 (Herbicidal rate of 90% or more (almost completely withered))	3 (Herbicidal rate of 40% or more and less than 70%)	5 (Herbicidal rate of 90% or more (almost completely withered))	5 (Herbicidal rate of 90% or more (almost completely withered))	4 (Herbicidal rate of 70% or more and less than 90%)	5 (Herbicidal rate of 90% or more (almost completely withered))	5 (Herbicidal rate of 90% or more (almost completely withered))	5 (Herbicidal rate of 90% or more (almost completely withered))	5 (Herbicidal rate of 90% or more (almost completely withered))	5 (Herbicidal rate of 90% or more (almost completely withered))	–
COc1ccccc1-c1sc2cc(OCC(F)F)ccc2c1-c1c(O)c(C)nn(C)c1=O [3-114]	3 (Herbicidal rate of 40% or more and less than 70%)	4 (Herbicidal rate of 70% or more and less than 90%)	5 (Herbicidal rate of 90% or more (almost completely withered))	5 (Herbicidal rate of 90% or more (almost completely withered))	5 (Herbicidal rate of 90% or more (almost completely withered))	0 (Herbicidal rate of 5% or less (almost no effect))	5 (Herbicidal rate of 90% or more (almost completely withered))	5 (Herbicidal rate of 90% or more (almost completely withered))	4 (Herbicidal rate of 70% or more and less than 90%)	5 (Herbicidal rate of 90% or more (almost completely withered))	5 (Herbicidal rate of 90% or more (almost completely withered))	5 (Herbicidal rate of 90% or more (almost completely withered))	5 (Herbicidal rate of 90% or more (almost completely withered))	5 (Herbicidal rate of 90% or more (almost completely withered))	5 (Herbicidal rate of 90% or more (almost completely withered))	5 (Herbicidal rate of 90% or more (almost completely withered))	5 (Herbicidal rate of 90% or more (almost completely withered))	–
CCOc1ccccc1-c1sc2cc(OCCOC)ccc2c1-c1c(O)c(C)nn(C)c1=O [3-123]	3 (Herbicidal rate of 40% or more and less than 70%)	3 (Herbicidal rate of 40% or more and less than 70%)	5 (Herbicidal rate of 90% or more (almost completely withered))	5 (Herbicidal rate of 90% or more (almost completely withered))	5 (Herbicidal rate of 90% or more (almost completely withered))	4 (Herbicidal rate of 70% or more and less than 90%)	4 (Herbicidal rate of 70% or more and less than 90%)	5 (Herbicidal rate of 90% or more (almost completely withered))	2 (Herbicidal rate of 20% or more and less than 40%)	5 (Herbicidal rate of 90% or more (almost completely withered))	5 (Herbicidal rate of 90% or more (almost completely withered))	5 (Herbicidal rate of 90% or more (almost completely withered))	5 (Herbicidal rate of 90% or more (almost completely withered))	5 (Herbicidal rate of 90% or more (almost completely withered))	5 (Herbicidal rate of 90% or more (almost completely withered))	5 (Herbicidal rate of 90% or more (almost completely withered))	5 (Herbicidal rate of 90% or more (almost completely withered))	–
COc1ccccc1-c1sc2cc(OCCSC)ccc2c1-c1c(O)c(C)nn(C)c1=O [3-125]	0 (Herbicidal rate of 5% or less (almost no effect))	3 (Herbicidal rate of 40% or more and less than 70%)	5 (Herbicidal rate of 90% or more (almost completely withered))	2 (Herbicidal rate of 20% or more and less than 40%)	0 (Herbicidal rate of 5% or less (almost no effect))	0 (Herbicidal rate of 5% or less (almost no effect))	5 (Herbicidal rate of 90% or more (almost completely withered))	5 (Herbicidal rate of 90% or more (almost completely withered))	4 (Herbicidal rate of 70% or more and less than 90%)	5 (Herbicidal rate of 90% or more (almost completely withered))	5 (Herbicidal rate of 90% or more (almost completely withered))	5 (Herbicidal rate of 90% or more (almost completely withered))	5 (Herbicidal rate of 90% or more (almost completely withered))	4 (Herbicidal rate of 70% or more and less than 90%)	5 (Herbicidal rate of 90% or more (almost completely withered))	5 (Herbicidal rate of 90% or more (almost completely withered))	5 (Herbicidal rate of 90% or more (almost completely withered))	–
COc1ccccc1-c1sc2cc(OCC3CCCO3)ccc2c1-c1c(O)c(C)nn(C)c1=O (stereo not shown) [3-133]	2 (Herbicidal rate of 20% or more and less than 40%)	3 (Herbicidal rate of 40% or more and less than 70%)	3 (Herbicidal rate of 40% or more and less than 70%)	–	–	–	–	–	–	–	–	5 (Herbicidal rate of 90% or more (almost completely withered))	5 (Herbicidal rate of 90% or more (almost completely withered))	3 (Herbicidal rate of 40% or more and less than 70%)	5 (Herbicidal rate of 90% or more (almost completely withered))	5 (Herbicidal rate of 90% or more (almost completely withered))	5 (Herbicidal rate of 90% or more (almost completely withered))	Herbicidal effect by soil treatment, G: green foxtail [4]: 5 (Herbicidal rate of 90% or more (almost completely withered)); Herbicidal effect by soil treatment, H: barnyard grass [5]: 1 (Herbicidal rate of 5% or more and less than 20%); Herbicidal effect by soil treatment, I: wild oat [6]: 1 (Herbicidal rate of 5% or more and less than 20%); Herbicidal effect by soil treatment, J: blackgrass [7]: 3 (Herbicidal rate of 40% or more and less than 70%); Herbicidal effect by soil treatment, K: Italian ryegrass [8]: 5 (Herbicidal rate of 90% or more (almost completely withered)); Herbicidal effect by soil treatment, M: velvetleaf [9]: 1 (Herbicidal rate of 5% or more and less than 20%); Herbicidal effect by soil treatment, O: lambsquarters [10]: 5 (Herbicidal rate of 90% or more (almost completely withered)); Herbicidal effect by soil treatment, P: chickweed [11]: 4 (Herbicidal rate of 70% or more and less than 90%)
